Experimental data as given in US12091426B2, “Bifunctional degraders of hematopoietic progenitor kinase and therapeutic uses thereof” (Nurix Therapeutics, Inc., priority 2021, dated 2024).

Biological target: T1, HPK1 (Homo sapiens, UniProt Q92918)
T1 construct: A HiBiT tag was introduced by CRISPR on the N terminus of HPK1 in Jurkat cells; host or cells: Jurkat cells (ATCC TIB-152), monoclonal line with CRISPR knock-in of HiBiT at the endogenous HPK1 locus
Experiment: HPK1 Cellular HiBit Degradation Assay
Assay type: cell-based
Conditions: HiBiT HPK1 Jurkat cells, 24 hrs; for DC50: concentration at which 50% of HPK1 was remaining, read-out: DC50 Category; for Dmax: Jurkat, read-out: Dmax Category
Outline: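 Jurkat cells with CRISPR N-terminal HiBiT-tagged endogenous HPK1 treated 24 h at 37 °C with 11-point, 3.16-fold dilutions (10 uM to 0.1 nM final). HiBiT lytic luminescence gives % HPK1 remaining versus DMSO, with parental cells as background. Four-parameter fit yields DC50; Dmax = 100 minus lowest % remaining.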

[1] = maximum degradation vs DMSO vehicle control

T1 sequence (Q92918 whole entry): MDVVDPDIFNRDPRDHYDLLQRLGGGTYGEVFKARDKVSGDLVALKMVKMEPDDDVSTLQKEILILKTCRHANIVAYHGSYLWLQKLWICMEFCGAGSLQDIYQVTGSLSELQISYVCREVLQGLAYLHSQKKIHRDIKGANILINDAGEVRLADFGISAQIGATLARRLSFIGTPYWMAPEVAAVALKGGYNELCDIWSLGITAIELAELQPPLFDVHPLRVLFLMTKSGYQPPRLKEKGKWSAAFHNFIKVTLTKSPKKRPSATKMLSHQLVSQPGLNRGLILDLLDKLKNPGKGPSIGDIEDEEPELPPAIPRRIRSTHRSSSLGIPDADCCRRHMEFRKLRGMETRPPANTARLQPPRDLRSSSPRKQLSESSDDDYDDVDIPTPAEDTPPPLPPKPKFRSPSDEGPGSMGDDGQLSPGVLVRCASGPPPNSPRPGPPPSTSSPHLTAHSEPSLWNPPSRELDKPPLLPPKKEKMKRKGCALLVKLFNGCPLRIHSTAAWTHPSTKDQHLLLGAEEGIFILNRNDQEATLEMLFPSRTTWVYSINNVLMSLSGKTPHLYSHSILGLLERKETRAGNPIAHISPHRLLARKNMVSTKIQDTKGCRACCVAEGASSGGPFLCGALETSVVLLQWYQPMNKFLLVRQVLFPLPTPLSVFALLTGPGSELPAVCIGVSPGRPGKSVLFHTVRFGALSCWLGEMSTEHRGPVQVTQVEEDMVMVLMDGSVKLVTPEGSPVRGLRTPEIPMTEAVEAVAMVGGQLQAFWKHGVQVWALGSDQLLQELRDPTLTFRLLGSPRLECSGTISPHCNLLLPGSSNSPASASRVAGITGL

Row | DC50 [nM] | Dmax [1] [%] | Structure (SMILES) | Dmax Category [1]
1 | < 100 | 70 to 85 | CC(C)n1cnc2cc(-c3ccc4c(c3)N([C@H]3C[C@@H](N5CCCCC5)C3)C(=O)C43CCN(C(=O)C4(C)CCN(C(=O)[C@H]5CC[C@H](Oc6ccc(C7CCC(=O)NC7=O)cn6)CC5)CC4)CC3)nc(Nc3ccncc3F)c21 (mixture of isomers) [Example 106] | 
2 | < 100 | 70 to 85 | CC(C)n1cnc2cc(-c3ccc4c(c3)N([C@H]3C[C@@H](N5CCCCC5)C3)C(=O)C43CCN(C(=O)C4(C)CCN(C(=O)[C@H]5CC[C@H](Oc6ccc(C7CCC(=O)NC7=O)cn6)CC5)CC4)CC3)nc(NC3CC3)c21 (mixture of isomers) [Example 104, (3RS)-3-(6-{[(1R,4R)-4-[4-({6-[4-(cyclopropylamino)-3-(propan-2-yl)-3H-imidazo[4,5-c]pyridin-6-yl]-2-oxo-1-[(1S,3S)-3-(piperidin-1-yl)cyclobutyl]-1,2-dihydrospiro[indole-3,4′-piperidin]-1′-yl}carbonyl)-4-methylpiperidine-1-carbonyl]cyclohexyl]oxy}pyridin-3-yl)piperidine-2,6-dione] | 
3 | < 100 | > 85 | CC(C)n1cnc2cc(-c3ccc4c(c3)N([C@H]3C[C@@H](N5CCCCC5)C3)C(=O)C43CCN(C(=O)[C@@H]4CCN(C(=O)[C@H]5CC[C@H](N(C)c6ccc(C7CCC(=O)NC7=O)cn6)CC5)C4)CC3)nc(Nc3ccncc3F)c21 (mixture of isomers) [Example 128, (3RS)-3-(6-{methyl[(1R,4R)-4-[(3R)-3-[(6-{4-[(3-Fluoropyridin-4-yl)amino]-3-(propan-2-yl)-3H-imidazo[4,5-c]pyridin-6-yl}-2-oxo-1-[(1S,3S)-3-(piperidin-1-yl)cyclobutyl]-1,2-dihydrospiro[indole-3,4′-piperidin]-1′-yl)carbonyl]pyrrolidine-1-carbonyl]cyclohexyl]amino}pyridin-3-yl)piperidine-2,6-dione] | 
4 | 500 to 1000 | 50 to 70 | CC(C)n1cnc2cc(-c3ccc4c(c3)N([C@H]3C[C@@H](N5CCCCC5)C3)C(=O)C43CCN(C(=O)c4ccc(C(=O)NC5CCN(c6ccc7c(c6)C(=O)N(C6CCC(=O)NC6=O)C7=O)CC5)cc4)CC3)nc(NC3CC3)c21 (mixture of isomers) [Example 43, 4-({6-[4-(cyclopropylamino)-3-(propan-2-yl)-3H-imidazo[4,5-c]pyridin-6-yl]-2-oxo-1-[(1S,3S)-3-(piperidin-1-yl)cyclobutyl]-1,2-dihydrospiro[indole-3,4′-piperidin]-1′-yl}carbonyl)-N-(1-{2-[(3RS)-2,6-dioxopiperidin-3-yl]-1,3-dioxo-2,3-dihydro-1H-isoindol-5-yl}piperidin-4-yl)benzamide] | 
5 | 100 to 500 | 70 to 85 | CC(C)n1cnc2cc(-c3ccc4c(c3)N([C@H]3C[C@@H](N5CCCCC5)C3)C(=O)C43CCN(C(=O)C4(C)CCN(C(=O)[C@H]5CC[C@H](Oc6ncc(C7CCC(=O)NC7=O)cn6)CC5)CC4)CC3)nc(NC3CC3)c21 (mixture of isomers) [Example 194, (3RS)-3-(2-{[(1R,4R)-4-[4-({6-[4-(cyclopropylamino)-3-(propan-2-yl)-3H-imidazo[4,5-c]pyridin-6-yl]-2-oxo-1-[(1S,3S)-3-(piperidin-1-yl)cyclobutyl]-1,2-dihydrospiro[indole-3,4′-piperidin]-1′-yl}carbonyl)-4-methylpiperidine-1-carbonyl]cyclohexyl]oxy}pyrimidin-5-yl)piperidine-2,6-dione] | 
6 | < 100 | > 85 | CC(C)n1cnc2cc(-c3ccc4c(c3)N([C@H]3C[C@@H](N5CCCCC5)C3)C(=O)C43CCN(C(=O)C4(C)CCN(C(=O)C5CCN(c6ccc(C7CCC(=O)NC7=O)cn6)CC5)CC4)CC3)nc(OC3CC3)c21 (stereo partly drawn) [Example 178, 3-(6-{4-[4-({6-[4-cyclopropoxy-3-(propan-2-yl)-3H-imidazo[4,5-c]pyridin-6-yl]-2-oxo-1-[(1S,3S)-3-(piperidin-1-yl)cyclobutyl]-1,2-dihydrospiro[indole-3,4′-piperidin]-1′-yl}carbonyl)-4-methylpiperidine-1-carbonyl]piperidin-1-yl}pyridin-3-yl)piperidine-2,6-dione] | 
7 | 500 to 1000 | 50 to 70 | CC(C)n1cnc2cc(-c3ccc4c(c3)N([C@H]3C[C@@H](N5CCCCC5)C3)C(=O)C43CCN(C(=O)c4ccc(C(=O)N5CCN(c6ccc7c(c6)C(=O)N(C6CCC(=O)NC6=O)C7=O)CC5)cc4)CC3)nc(Nc3ccncc3F)c21 (mixture of isomers) [Example 42, 2-[(3RS)-2,6-dioxopiperidin-3-yl]-5-(4-{4-[(6-{4-[(3-Fluoropyridin-4-yl)amino]-3-(propan-2-yl)-3H-imidazo[4,5-c]pyridin-6-yl}-2-oxo-1-[(1S,3S)-3-(piperidin-1-yl)cyclobutyl]-1,2-dihydrospiro[indole-3,4′-piperidin]-1′-yl)carbonyl]benzoyl}piperazin-1-yl)-2,3-dihydro-1H-isoindole-1,3-dione] | 
8 | 100 to 500 | 70 to 85 | Cc1nc(N2CCC(C(=O)N3CCC(C)(C(=O)N4CCC5(CC4)C(=O)N([C@H]4C[C@@H](N6CCCCC6)C4)c4cc(-c6cc7ncn(C(C)C)c7c(Nc7ccccc7F)n6)ccc45)CC3)CC2)ccc1C1CCC(=O)NC1=O (mixture of isomers) [Example 157, (3RS)-3-[6-(4-{4-[(6-{4-[(2-fluorophenyl)amino]-3-(propan-2-yl)-3H-imidazo[4,5-c]pyridin-6-yl}-2-oxo-1-[(1S,3S)-3-(piperidin-1-yl)cyclobutyl]-1,2-dihydrospiro[indole-3,4′-piperidin]-1′-yl)carbonyl]-4-methylpiperidine-1-carbonyl}piperidin-1-yl)-2-Methylpyridin-3-yl]piperidine-2,6-dione] | 
9 | 100 to 500 | 70 to 85 | CC(C)n1cnc2cc(-c3ccc4c(c3)N([C@H]3C[C@@H](N5CCC[C@@H](F)C5)C3)C(=O)C43CCN(C(=O)C4(C)CCN(C(=O)C5CCN(c6ccc(C7CCC(=O)NC7=O)cn6)CC5)CC4)CC3)nc(NC3CC3)c21 (mixture of isomers) [Example 219, (3RS)-3-(6-{4-[4-({6-[4-(cyclopropylamino)-3-(propan-2-yl)-3H-imidazo[4,5-c]pyridin-6-yl]-2-oxo-1-[(1S,3S)-3-[(3R)-3-fluoropiperidin-1-yl]cyclobutyl]-1,2-dihydrospiro[indole-3,4′-piperidin]-1′-yl}carbonyl)-4-methylpiperidine-1-carbonyl]piperidin-1-yl}pyridin-3-yl)piperidine-2,6-dione] | 

Row | Structure (SMILES) | DC50 [nM] | Dmax [1] [%] | Dmax Category [1]
10 | CC(C)n1cnc2cc(-c3ccc4c(c3)N([C@H]3C[C@@H](N5CCCCC5)C3)C(=O)C43CCN(C(=O)C4C5CC4CN(C(=O)C4CCN(c6ccc(C7CCC(=O)NC7=O)cn6)CC4)C5)CC3)nc(NC3CC3)c21 (mixture of isomers) [Example 282, (3RS)-3-(6-{4-[6-({6-[4-(cyclopropylamino)-3-(propan-2-yl)-3H-imidazo[4,5-c]pyridin-6-yl]-2-oxo-1-[(1S,3S)-3-(piperidin-1-yl)cyclobutyl]-1,2-dihydrospiro[indole-3,4′-piperidin]-1′-yl}carbonyl)-3-azabicyclo[3.1.1]heptane-3-carbonyl]piperidin-1-yl}pyridin-3-yl)piperidine-2,6-dione] | < 100 | 70 to 85 | 
11 | CC(C)n1cnc2cc(-c3ccc4c(c3)N([C@H]3C[C@@H](N5CCCCC5)C3)C(=O)C43CCN(C(=O)C45CN(C(=O)C6CCN(c7ccc(C8CCC(=O)NC8=O)cn7)CC6)CC(F)(C4)C5)CC3)nc(NC3CC3)c21 (mixture of isomers) [Example 279, (3RS)-3-(6-{4-[1-({6-[4-(cyclopropylamino)-3-(propan-2-yl)-3H-imidazo[4,5-c]pyridin-6-yl]-2-oxo-1-[(1S,3S)-3-(piperidin-1-yl)cyclobutyl]-1,2-dihydrospiro[indole-3,4′-piperidin]-1′-yl}carbonyl)-5-fluoro-3-azabicyclo[3.1.1]heptane-3-carbonyl]piperidin-1-yl}pyridin-3-yl)piperidine-2,6-dione] | < 100 | 70 to 85 | 
12 | Cc1cc(C2CCC(=O)NC2=O)cnc1N1CCC(C(=O)N2CCC(C)(C(=O)N3CCC4(CC3)C(=O)N(C3CC(N5CCCCC5)C3)c3cc(-c5cc6ncn(C(C)C)c6c(NC6CC6)n5)ccc34)CC2)CC1 (racemic) [Example 148, (3RS)-3-(6-{4-[4-({6-[4-(cyclopropylamino)-3-(propan-2-yl)-3H-imidazo[4,5-c]pyridin-6-yl]-2-oxo-1-[(1S,3S)-3-(piperidin-1-yl)cyclobutyl]-1,2-dihydrospiro[indole-3,4′-piperidin]-1′-yl}carbonyl)-4-methylpiperidine-1-carbonyl]piperidin-1-yl}-5-Methylpyridin-3-yl)piperidine-2,6-dione] | < 100 |  | B (B: >70%-<85%)
13 | CC(C)n1cnc2cc(-c3ccc4c(c3)N(C3CC(N5CCCCC5)C3)C(=O)C43CCN(CC(=O)N4CCN(C(=O)C5CCN(c6ccc(C7CCC(=O)NC7=O)cn6)CC5)CC4)CC3)nc(NC3CC3)c21 (centres unmarked) [Example 183, 3-(6-{4-[4-(2-{6-[4-(cyclopropylamino)-3-(propan-2-yl)-3H-imidazo[4,5-c]pyridin-6-yl]-2-oxo-1-[3-(piperidin-1-yl)cyclobutyl]-1,2-dihydrospiro[indole-3,4′-piperidine]-1′-yl}Acetyl)piperazine-1-carbonyl]piperidin-1-yl}pyridin-3-yl)piperidine-2,6-dione] | < 100 | > 85 | 
